# Measured values taken from US20140056983A1, “FOOD ADDITIVE FOR RUMINANTS BASED ON EUGENOL AND CINNAMALDEHYDE” (priority 2005, published 2014).
# What was measured:
# [1] = system: Holstein-Freisan milk cows; assay: Study 2: food consumption and dairy production in milk cows, Latin Square 4x4; type: in vivo
# Procedure: In the second study, the effect of a variation in the relative proportions of eugenol and cinnamaldehyde in a food additive on the production of meat and the dairy production was tested.
# In this test, sixteen Holstein-Freisan milk cows, in their eighth week of lactation, were divided for Latin type Square 4×4 testing. Each period of treatment lasted two weeks.
# The first group received a food without an additive.
# The second group received a food containing 30 ppm cinnamaldehyde.
# The third group received a food containing a mixture of 30 ppm cinnamaldehyde and 15 ppm of eugenol.
# The fourth group received a food containing a mixture of 30 ppm eugenol and 16 ppm of cinnamaldehyde.
# During each treatment period, the food consumption and the dairy production were measured.
# [2] = system: liquid taken from the rumen; assay: Study 1: in vitro digestibility of dehydrated alfalfa in rumen liquid (Tilley and Terry method); parameters: species or system cows; conditions: for ADFd (digestibility of acid digestible fiber) / DMd (digestibility of the dry matter) / NDFd (digestibility of neutral digestible fiber): dehydrated alfalfa, 30 ppm additive in total (mixture 15 + 15 ppm), 39° C., 24 hours; for digestibility of the fibers of the dehydrated alfalfa (in words): versus no additive
# Procedure: During this first study, the effects of a mixture according to the invention on the digestibility of the feed of the ruminant animals was analyzed, by conducting an “in vitro” study in accordance with the Tilley and Terry method (1963). For a more complete description of this method, please refer to the following publication: […]. and Terry, R. A. 1963. A two stage technique for the in vitro digestion of forage crops. J. Brit. Grassland Soc. 18-104-111. For incubation the following was used: • a) The basic feed made up of 100% dehydrated alfalfa, supplemented by an equal amount of Peugenol, or of cinnamaldehyde, or of a mixture of the two components; • b) MacDougall buffer; • c) Liquid taken from the empty rumen of four animals permanently equipped with a nozzle on the level of the rumen and nourished with the basic feed. […] The ruminated liquid originated in fistulated cows during the first 100 days of lactation. The state of the first container was preserved, without making any addition. […] In the third container, 30 ppm cinnamaldehyde was added. In the fourth container, 15 ppm of eugenol and 15 ppm of cinnamaldehyde was added. The containers were incubated at 39° C. during 24 hours. The DacronTM sachets were removed, washed and dried at 55° C. Various digestibility parameters were determined according to the Van Soest et al. method (1991). For a more complete description of this method, please refer to the following publication: Van Soest, P. J. Robertson. J. D., and Lewis, B. A. 1991. Methods for dietary fibre, neutral detergent fibre and non-starch polysaccharides in relation to animal nutrition. J. Dairy Se. 74: 3583-3597.
# rumen fluid = assay: Study 5: in vitro feed digestibility, dose of the mixture versus monensin (Tilley and Terry method); parameters: species or system cows; conditions: after 24 hours; mixture 28% eugenol and 17% cinnamaldehyde at 3, 30, 300 mg per animal/per day; monensin as reference
# Procedure: In the table above, the characteristics of each food are expressed as a percentage of dry matter, total protein, neutral digestible fiber (NDF), acid digestible fiber (ADF), for the oats, alfalfa, a complete feed (TMR). […] The effects of a mixture according to the invention on the feed digestibility according to the Tilley and Terry method were analyzed. […] Control bottles were also prepared, containing ethanol, to avoid the parasitic effects of fermentation due to ethanol. […] The results were analyzed by using mixed SAS procedures. The results were compared to the feed containing the monensin. The results from the feed containing monensin were considered a reference result. […] Thus, this fable reflects the digestibility of neutral digestible fiber (NDFd), digestibility of acid digestible fiber (ADFd), and dry matter digestibility (DMd), after 24 hours.
# [3] = milk cows, eighth week of lactation, two-week treatment periods, ppm in food
SMILES,"Food Consumption [1, 3] [b kg MS/animal/d]","Milk Production [1, 3] [l/animal/d]",food consumption (in words) ([1]; versus no additive),milk production (in words) ([1]; versus no additive),ADFd (digestibility of acid digestible fiber) [2] [%],DMd (digestibility of the dry matter) [2] [%],NDFd (digestibility of neutral digestible fiber) [2] [%],digestibility of the fibers of the dehydrated alfalfa (in words) [2],ADFd (digestibility of acid digestible fiber) (rumen fluid),DMd (dry matter digestibility) (rumen fluid),NDFd (digestibility of neutral digestible fiber) (rumen fluid)
"O=CC=Cc1ccccc1 [Cinnamaldehyde, cinnamaldehyde]",2.571,37.23,reduction,reduction,8.53,39.06,4.83,does not improve,,,
"C=CCc1ccc(O)c(OC)c1 [Eugenol, eugenol]",,,,,8.05,40.02,5.63,does not improve,,,
"CC[C@@]1([C@@H]2O[C@@H]([C@H]3O[C@@](O)(CO)[C@H](C)C[C@@H]3C)C[C@@H]2C)CC[C@H]([C@]2(C)CC[C@]3(C[C@H](O)[C@@H](C)[C@@H]([C@@H](C)[C@@H](OC)[C@H](C)C(=O)O)O3)O2)O1 [MON, sodium-monensin]",,,,,,,,,24.38,43.43,22.24
